Tests used:
rat [1] = conditions: Combined chronic toxicity/carcinogenicity, fischer, Oral, Feed, dose end: 24 month
mouse [2] = conditions: Carcinogenicity, b6c3f1, Oral, Feed, dose end: 18 month
rat [3] = conditions: Combined chronic toxicity/carcinogenicity, fischer, Oral, Feed, dose end: 24 month; remark: listed apart in the source
rat [4] = conditions: Developmental neurotoxicity ChE Inhibition study; sprague dawley; Oral; Gavage/Intubation; dose end: 21 PND; group: cannot be grouped; cholinesterase / cholinesterase / cholinesterase / erythrocyte cholinesterase (che)
mouse [5] = conditions: Carcinogenicity; cd1; Oral; Feed; dose end: 18 month; group: systemic; systemic / in life observation / body weight / body weight + systemic / in life observation / body weight / body weight gain + systemic / in…
dog [6] = conditions: Chronic toxicity; beagle; Oral; Feed; dose end: 52 week; group: systemic; systemic / in life observation / body weight / body weight gain
dog [7] = conditions: Subchronic oral toxicity in nonrodent, beagle, Feed, dose end: 6 month, group: systemic
rat [8] = conditions: Prenatal developmental toxicity study, sprague dawley, Oral, Gavage/Intubation, dose end: 15 GD
dog [9] = conditions: Subchronic oral toxicity in nonrodent, beagle, Feed, dose end: 6 month, group: systemic; remark: listed apart in the source
[10] = group: cholinesterase, cholinesterase / cholinesterase / cholinesterase / plasma cholinesterase (che)
[11] = group: cholinesterase, cholinesterase / cholinesterase / cholinesterase / plasma cholinesterase (che) + cholinesterase / cholinesterase / cholinesterase / brain …
[12] = group: systemic, systemic / pathology microscopic / parathyroid gland / hyperplasia
[13] = group: systemic, systemic / pathology microscopic / parathyroid gland / hyperplasia + systemic / hematology / erythrocyte (rbc) count differential / …
[14] = group: cholinesterase, cholinesterase / cholinesterase / cholinesterase / erythrocyte cholinesterase (che) + cholinesterase / cholinesterase / cholinesterase / …
[15] = group: systemic, systemic / in life observation / body weight / body weight + systemic / in life observation / food consumption / food consumption + systemic…
[16] = group: cholinesterase, cholinesterase / cholinesterase / cholinesterase / erythrocyte cholinesterase (che)
[17] = group: systemic, systemic / hematology / mean corpuscular (cell) volume (mcv) / mean corpuscular (cell) volume (mcv) + systemic / hematology / mean …
[18] = group: systemic, systemic / in life observation / food consumption / food consumption + systemic / pathology microscopic / parathyroid gland / hyperplasia
[19] = systemic / in life observation / body weight / body weight gain
[20] = systemic / in life observation / body weight / body weight gain + systemic / in life observation / food consumption / food consumption
[21] = group: developmental, systemic / in life observation / body weight / fetal weight
[22] = group: maternal, reproductive / reproductive performance / implantations / implantations + systemic / in life observation / body weight / body weight gain + …

CCOC(=O)CC(SP(=S)(OC)OC)C(=O)OCC (configuration not stated) [Malathion]
LOAEL (rat [1]; [10]): 29 mg/kg/day
NEL (rat [1]; [11]): 4 mg/kg/day
NOAEL (rat [1]; [11]): 4 mg/kg/day
LEL (rat [1]; group: cholinesterase, cholinesterase / cholinesterase / cholinesterase / plasma cholinesterase (che) + cholinesterase / cholinesterase / cholinesterase / …): 29 mg/kg/day
LEL (rat [1]; [12]): 4 mg/kg/day
NEL (rat [1]; [12]): < 4 mg/kg/day
LOAEL (rat [1]; [13]): > 739 mg/kg/day
NOAEL (rat [1]; [13]): ≥ 739 mg/kg/day
LEL (mouse [2]; [14]): 143 mg/kg/day
LOAEL (mouse [2]; [14]): 143 mg/kg/day
NEL (mouse [2]; [14]): 17.4 mg/kg/day
NOAEL (mouse [2]; [14]): 17.4 mg/kg/day
LEL (mouse [2]; [15]): 1480 mg/kg/day
LOAEL (mouse [2]; [15]): 1480 mg/kg/day
NEL (mouse [2]; [15]): 143 mg/kg/day
NOAEL (mouse [2]; [15]): 143 mg/kg/day
LEL (rat [3]; [16]): 5 mg/kg/day
NEL (rat [3]; [16]): < 5 mg/kg/day
LOAEL (rat [3]; [10]): 29 mg/kg/day
NOAEL (rat [3]; [11]): 4 mg/kg/day
LOAEL (rat [3]; [17]): 359 mg/kg/day
NOAEL (rat [3]; [17]): 29 mg/kg/day
LEL (rat [3]; [18]): 4 mg/kg/day
NEL (rat [3]; [18]): < 4 mg/kg/day
LEL (rat [4]): 5 mg/kg/day
LOAEL (rat [4]): 5 mg/kg/day
NEL (rat [4]): < 5 mg/kg/day
NOAEL (rat [4]): < 5 mg/kg/day

CCc1cccc(C)c1N(C(=O)CCl)C(C)COC (configuration not stated) [Metolachlor]
LEL (mouse [5]): 450 mg/kg/day
LOAEL (mouse [5]): 450 mg/kg/day
NEL (mouse [5]): 150 mg/kg/day
NOAEL (mouse [5]): 150 mg/kg/day
LEL (dog [6]): 33 mg/kg/day
LOAEL (dog [6]): 33 mg/kg/day
NEL (dog [6]): 9.7 mg/kg/day
NOAEL (dog [6]): 9.7 mg/kg/day
LOAEL (dog [7]; [19]): 29.4 mg/kg/day
LEL (dog [7]; [20]): 29.4 mg/kg/day
NEL (dog [7]; [20]): 8.77 mg/kg/day
NOAEL (dog [7]; [20]): 8.77 mg/kg/day
LEL (rat [8]; [21]): 1000 mg/kg/day
LOAEL (rat [8]; [21]): 1000 mg/kg/day
NEL (rat [8]; [21]): 300 mg/kg/day
NOAEL (rat [8]; [21]): 300 mg/kg/day
LOAEL (rat [8]; [22]): 1000 mg/kg/day
NEL (rat [8]; [22]): 100 mg/kg/day
NOAEL (rat [8]; [22]): 300 mg/kg/day
LEL (rat [8]; group: maternal, systemic / in life observation / clinical signs / salivation): 300 mg/kg/day
LOAEL (dog [9]; [19]): 29.4 mg/kg/day
LEL (dog [9]; [20]): 29.4 mg/kg/day
NEL (dog [9]; [20]): 8.77 mg/kg/day
NOAEL (dog [9]; [20]): 8.77 mg/kg/day

From EPA's ToxRefDB 2
